# Assay results taken from article PMC10838660, “Artificial intelligence-powered discovery of small molecules inhibiting CTLA-4 in cancer” (BJC reports, 2024).
# Columns and labels:
# [1] = system: serum cardiac troponin I type 3 (TNNI3); test: Serum TNNI3 in treated mice; type: in vivo; conditions: marker of ipilimumab-induced irAEs
# Excerpt: (§1) In hCTLA-4 mice, the ECD of the mouse Ctla-4 gene has been replaced with the human counterpart, yet the resulting protein still interacts effectively with mouse CD80 and CD86 [42]. […] Next, we measured the mice’s levels of serum cardiac troponin I type 3 (TNNI3), a marker associated with ipilimumab-induced irAEs. We found elevated serum TNNI3 levels in mice treated with ipilimumab, anti-PD-1, or anti-PD-1 plus D11, but not in mice treated with D11 alone (Fig. 4e). It is unclear why D11 monotherapy appeared to have a protective effect in comparison with anti-PD-1 alone. We also treated 2 human cells lines, HCT116 and MDA-MB231, with D11 and 5-fluorouracil, an antimetabolite drug that is widely used for the treatment of colorectal cancer. […] Thus, it is likely that D11 is weakly toxic to tumor cells and that its antitumor effects are largely due to its regulation of the immune response.
# [2] = system: human DCs with allogeneic peripheral blood mononuclear cells; test: Human DCs cultured with allogeneic PBMCs, flow cytometry; type: cell-based
# Procedure: CD80 and CD86 on dendritic cells (DCs) interact with CD28 or CTLA-4 on T cells to regulate T-cell activation.
# (§2) The ability of compounds to be immunostimulatory was measured by coculturing mouse-derived TILs with MC38 tumors grown in C57BL/6 mice. Tumors were digested using a Tumor Dissociation Kit (Miltenyi Biotec, 130-095-929). After cell isolation, TILs were extracted with a MagniSort Mouse CD45 isolation kit protocol (Invitrogen, 8802-6865-74). TILs were cocultured with MC38 cells for 48 h, and the expression levels of IFN-γ were detected with the AlphaLISA Mouse IFN-γ Detection Kit (PerkinElmer, AL501C). Human DCs and T cells from different patients were prepared and treated as described. For MC38 and human cancer cells treated with compounds, the CellTiter-Glo Luminescent Cell Viability Assay (Promega, G7570) was used to measure the viability.
# Flow cytometry was used to measure subcellular populations in tumors. All flow cytometry analyses were performed using either an LSR II flow cytometer (BD Biosciences) or a Northern Lights-3000 flow cytometer (Cytek) and analyzed with FlowJo (Treestar, Inc.). All flow analyses were representative of at least 3 independent experiments using […] CD proteins 4, 8, and 25 (CD4, 116003; CD8, 100707; and CD25, 102011); Foxp3 (126409); and IFN-γ (506506) flow antibodies (Biolegend). Antimouse and antihuman CTLA-4 antibodies were purchased from BioLegend (106313) and Invitrogen (46-1529-42).
# [3] = system: CD45+ immune cells from MC38 tumors; test: Single-cell RNA and TCR sequencing of CD45+ tumor immune cells; type: in vivo, hCTLA-4 mice; conditions: scRNAseq of CD45+ tumor cells
# Excerpt: Using another cohort of hCTLA-4 mice inoculated with MC38 cells, we treated animals (n = 5 per group) with ipilimumab, anti-PD-1, anti-PD-1 plus D11, D11 alone, or vehicle in the same dosages as used previously. Some animals’ tumors were collected approximately 10 days after the last treatment dose, whereas for the remaining animals, the tumors were allowed to grow (Supplementary Fig. S7). […] Single-cell suspensions from tumors were sorted to obtain CD45^+ immune cells, which were then subjected to single-cell RNA sequencing (scRNAseq) and TCR sequencing. Next, the immune cell populations were compared across the samples (Fig. 5b, c). […]
# Tumors from CTLA-4-humanized MC38 syngeneic mice (n = 3–5 mice) were extracted for single-cell suspension using a gentleMACS Octo Dissociator (Miltenyi Biotec). […] The acquired scRNAseq reads from the 10X Genomics platform were aligned to a reference genome (mm10) using Cell Ranger (V.7.1, 10X Genomics) default parameters. The reads and cells were further filtered with Seurat (V.4.0.3) in R (V.4.1.0). […] The clonality of the TCR repertoire was calculated as a 1-Pielou index value using the formula 1+ ∑(i=1 to n) (pi*ln(pi))/ln(n), where pi is the frequency of clone i for a sample of n unique clones; this metric was normalized to the number of unique clones and ranges from 0 to 1. […]
# [4] = system: mouse tumor-infiltrating lymphocytes (TILs); test: IFN-γ production in mouse TILs cocultured with MC38 tumor cells; type: cell-based
# Procedure: We examined the ability of these 5 anti-CTLA-4 compounds to stimulate interferon-γ (IFN-γ) production in mouse tumor-infiltrating lymphocytes (TILs). MC38 tumors grown in C57BL/6 mice were extracted to obtain CD45^+ TILs.
# as §2
# MC38 tumors [5] = test: MC38 tumors in humanized CTLA-4 (hCTLA-4) mice; type: in vivo; conditions: for development of MC38 tumors: therapeutic, A9 and D11 25 mg/kg
# Excerpt: as §1
# Using another cohort of hCTLA-4 mice inoculated with MC38 cells, we treated animals (n = 5 per group) with ipilimumab, anti-PD-1, anti-PD-1 plus D11, D11 alone, or vehicle in the same dosages as used previously. Some animals’ tumors were collected approximately 10 days after the last treatment dose, whereas for the remaining animals, the tumors were allowed to grow (Supplementary Fig. S7). […] Single-cell suspensions from tumors were sorted to obtain CD45^+ immune cells, which were then subjected to single-cell RNA sequencing (scRNAseq) and TCR sequencing. Next, the immune cell populations were compared across the samples (Fig. 5b, c). […] Another interesting observation from the scRNAseq analysis was that the differential expression of membrane-type 1 matrix metalloproteinase, which is known for its role as a key regulator in cell migration in tissues, was associated with D11 treatment. This finding could lead to a possible new mechanism of action, besides macrophage recruitment, to drive the search for anticancer compounds.
# (§3) We next investigated analogs of the 5 anti-CTLA-4 compounds for possible refinement.
# C57BL/6 mice were purchased from the Charles River Laboratories. In hCTLA-4 mice, the exons encoding for the ECD and transmembrane domains of murine CTLA-4 were replaced with the human versions. […] Tumor volumes were calculated with the formula volume = (width^2 × length)/2. Measurements were recorded every 2 to 3 days. […] For the histopathologic analysis of the internal organs harvested from mice that had been treated with therapeutic compounds or control antibodies, stained sections were prepared from the formalin-fixed tissue and were assessed in a blinded fashion.
# [6] = system: interaction of CTLA-4 with CD80 and CD86; test: Luciferase reporter assay, CTLA-4 effector Jurkat T cells with Raji antigen-presenting cells; type: cell-based, human
# Excerpt: We first evaluated the inhibitory impacts of the compounds against the interaction between CTLA-4 and CD80 using an amplified luminescent proximity homogeneous (Alpha)LISA assay. In this assay, a biotinylated CD80 binds to streptavidin-coated alpha donor beads, while anti-His AlphaLISA acceptor beads capture His-tagged CTLA-4. Upon binding of CD80 to CTLA-4, the donor and acceptor beads draw near, thus excitation of the donor bead leads to the release of singlet oxygen molecules. Consequently, an energy transfer cascade occurs in the acceptor beads, culminating in an intense peak of light emission at 615 nm (Fig. 1a). […] The compounds’ inhibitory activity against CTLA-4 was confirmed through a luciferase reporter assay involving 2 genetically engineered cell lines. First, we developed a CTLA-4 effector cell line using Jurkat T cells expressing human CTLA-4 and a luciferase reporter driven by a native promoter responsive to T-cell receptor (TCR)/CD28 activation. We also managed to establish an adjacent antigen-presenting cell line utilizing Raji cells, which are capable of expressing constitutively active engineered proteins on their surfaces without requiring antigens for effectivity. The Raji cells will also be able to naturally produce endogenous levels of both CD80 as well as CD86 molecules within the target APCs themselves as they transclude from one host to another. […]
# MC38 tumors [7] = test: MC38 syngeneic tumors in C57BL/6 mice; type: in vivo
# Procedure: C57BL/6 mice were purchased from the Charles River Laboratories. In hCTLA-4 mice, the exons encoding for the ECD and transmembrane domains of murine CTLA-4 were replaced with the human versions. All mice were maintained at the Research Animal Facility of Baylor College of Medicine, and all studies were conducted under an animal protocol approved by the Baylor College of Medicine Institutional Animal Care and Use Committee. Mice were challenged with 0.5 million MC38 colorectal cancer cells passaged the previous day at 75% confluence. For the prophylactic model, ipilimumab or small-molecule treatment began 1 day after tumor cell inoculation. For the therapeutic model, ipilimumab or small-molecule treatment was initiated 7 to 17 days after the injection of tumor cells, depending upon when the tumors reached an average size of approximately 100 mm^3. Tumor volumes were calculated with the formula volume = (width^2 × length)/2. Measurements were recorded every 2 to 3 days. For the histologic analyses, the internal organs, including the livers, kidneys, lungs, colons, and salivary glands, were fixed in 10% paraformal-dehyde for at least 24 h, cut from paraffin blocks in […] sections using a Microm HM 315 microtome, and mounted on SuperFrost Plus slides (Roth). Slides were stained with hematoxylin and eosin (Shandon Varistain [24–4] Automatic Stainer). For the histopathologic analysis of the internal organs harvested from mice that had been treated with therapeutic compounds or control antibodies, stained sections were prepared from the formalin-fixed tissue and were assessed in a blinded fashion.
# [8] = Body weight of treated hCTLA-4 mice; type: in vivo; conditions: MC38-inoculated hCTLA-4 mice, treated vs control
# Excerpt: as §1, §3
# tumor development = system: tumor development; set-up: method as in PMID 35254416; conditions: doses of 2 to 200 mg/kg; cited from earlier work
# [9] = start at approximately 100 mm^3
# [10] = prophylactic setting, 25 mg/kg i.p.
molecule,measurement,setting,value
"ipilimumab: an anti-CTLA-4 antibody, first immune checkpoint blockade therapy to receive FDA approval [reference compound]",serum TNNI3 levels,[1],elevated
same,Tconv (%),"[2]; 5 μg/ml, 6 days",42.7%
same,Tconv/Treg ratio,"[2]; 5 μg/ml, 6 days",3.44
same,Treg (%),"[2]; 5 μg/ml, 6 days",12.4%
same,tumor-infiltrating macrophages,[3],only moderately affected
same,IFN-γ production,[4]; 3-μg/ml doses,substantially stimulated
same,tumor inhibition / therapeutic efficacy,"MC38 tumors [5]; second cohort (Fig. 5a), start at approximately 100 mm^3",inhibited tumors
same,development of MC38 tumors,MC38 tumors [5]; [9],inhibited tumors
same,promoter-mediated luminescence (blockade of CTLA-4 with CD80 and CD86),[6],resulted in promoter-mediated luminescence
C/C(=N/OCc1ccccc1)c1nc(-c2ccccc2)[nH]c1C [A9],Tconv (%),"[2]; 10 μM, 6 days",43.1%
same,Treg (%),"[2]; 10 μM, 6 days",12.4%
same,Tconv (%),"[2]; 50 μM, 6 days",49.6%
same,Treg (%),"[2]; 50 μM, 6 days",20.9%
same,Tconv: Treg decrease (human cells),"[2]; Table 3 summary, Human CTLA-4/CD80",Y
same,numbers of tumor-infiltrating Treg cells,MC38 tumors [7]; 25 mg/kg i.p.,reduced
same,MC38 models,"MC38 tumors [7]; Table 3 summary, Mouse or human CTLA-4/mouse CD80",Y
same,"tumor growth after rechallenge with 200,000 MC38 cells","MC38 tumors [7]; mice that completely rejected tumors, vs control group",slower
same,animal survival,MC38 tumors [7]; [10],prolonged animal survival
same,complete tumor rejection / complete response,MC38 tumors [7]; [10],Four of 10
same,tumor growth,"MC38 tumors [7]; prophylactic setting, 4 200-μg doses (25 mg/kg) i.p. every other day, start 1 day after inoculation",drastically inhibited tumor growth
same,tumor growth,"MC38 tumors [7]; therapeutic setting, start at tumor volume approximately 100 mm^3",significantly reduced tumor growth
same,body weight,[8],no significant weight loss
same,INF-γ stimulation ex vivo (MC38),"[4]; Table 3 summary, Mouse CTLA-4/CD80",Y
same,tumor-inhibition activity in hCTLA-4 mice compared with non-humanized C57BL/6 mice,"MC38 tumors [5]; mouse, in vivo",superior tumor-inhibition activity
same,development of MC38 tumors,MC38 tumors [5]; [9],substantially inhibited
same,promoter-mediated luminescence (blockade of CTLA-4 with CD80 and CD86),[6],resulted in promoter-mediated luminescence
Cc1c(Nc2nccc3cc(CN4CC[C@@H](O)C4)cnc23)cccc1-c1cccc(-c2nc3cc(CN4CC[C@@H](C(=O)O)C4)cc(C#N)c3o2)c1C [INCB086550],tumor development,tumor development,inhibited tumor development
